# pIC50: −log10 of the molar value.
# Tested on: 699152-130-R-J1-PDC complex spheroid viability
# Assay: Anticancer human tumor 699152-130-R-J1-PDC patient-derived pancreatic carcinoma cell line growth inhibition [POLQ]
# Conditions: for pIC50: curve of first compound; for viability, T/C: stronger effect = lower value
# Method: Multicellular complex tumor spheroid response to Polymerase (POL) inhibitors (novobiocin, ART-558, RP6685) in combination with a variety of drugs and investigational agents in selected tumor cell lines
# The POL inhibitors (novobiocin, ART-558, and RP6685) were evaluated both individually and in combination with standard of care and investigational anticancer small molecules within a complex spheroid model of solid tumors. . Complex spheroids include a stromal component modeled by human endothelial cells (HUVEC) and fibroblasts modeled by human mesenchymal stem cells (MSCs). The concentration ranges selected for each drug and investigational agent were based upon clinically achievable concentrations if the clinical Cmax of the agent was known.
# Compounds. The drugs and investigational agents: novobiocin (NSC847541), ART-558 (NSC835418), RP-6685 (NSC848927), peposertib (NSC802822), ceralasertib (NSC780249), elimusertib (NSC800525), camonsertib (NSC841442), AZD-1390 (NSC803789), olaparib (NSC753686), talazoparib (NSC767125), rucaparib (NSC756644), sotorasib (NSC818433), MRTX-1133 (NSC836407), SN-38 (NSC673596), topotecan (NSC609699), epotoside (NSC141540), doxorubicin (NSC123127), gemcitabine (NSC613327), 5-fluorouracil (NSC19893), paclitaxel (NSC125973), vemurafenib (NSC761431), MSA-2 (NSC828583), SN-011 (NSC837082), adavosertib (NSC754352), prexasertib (NSC758257), carboplatin (NSC241240) and oxaliplatin (NSC266046), were obtained from the National Cancer Institute (NCI) Developmental Therapeutics Program Chemical Repository (21). The FDA-approved anticancer drug set is available from the Developmental Therapeutics Program at https://dtp.cancer.gov/organization/dscb/obtaining/. […] The stock solutions were prepared in dimethyl sulfoxide (DMSO, Sigma-Aldrich, St. Louis, MO, cat. D2650), except for the platinum compounds which were prepared in saline (Quality Biological, Gaithersburg, MD, cat. 114-055-101), at 800-fold the tested concentration and stored at -70 degrees C prior to their use. All drugs and investigational agents were tested over a range starting from a high concentration at or near the clinical Cmax and decreasing in half-log increments. If the clinical Cmax for an agent had not been determined, the highest concentration tested was 10 microM, except for SN-38, which was tested at a high concentration of 1 microM.
# Cell Culture. All cells were maintained in an incubator at 37 degrees C and 5% CO2 with 95% humidity. The PDC lines were cultured according to standard operating procedures established by the NCI PDMR (https://pdmr.cancer.gov). Table 3 of the manuscript, lists the cell lines along with the number of the three cell types plated to form the mct-spheroids and media for tumor cell growth. After thawing, all PDC lines, except 997537-175-T-J1-PDC and 415267-285-R-J2-PDC, were cultured in Matrigel-coated flasks prepared with a working solution of 1X Ham's F-12 nutrient mix, without supplementation (Thermo Fisher Scientific, cat. 11765054), 100 U/mL penicillin-streptomycin (Thermo Fisher Scientific, cat. 15140122), and 2.5% Matrigel (Corning Inc., Corning, NY, cat. 354248) for the first three passages. The two PDC lines 997537-175-T-J1-PDC and 415267-285-R-J2-PDC were cultured on uncoated flasks. The 857933-349-R-J2-PDC line was cultured in 6C/Colon 1B media containing advanced DMEM/F-12 (Thermo Fisher Scientific, cat. 12634028), 10 mM HEPES (Thermo Fisher Scientific, cat. 15630080), 1X GlutaMAX supplement (Thermo Fisher Scientific, cat. 35050061), 0.1 mg/mL primocin (InvivoGen, San Diego, CA, cat. ant-pm-2), 10% defined fetal bovine serum, heat inactivated (HyClone Laboratories Inc., Logan, UT, cat. SH30070.03HI), 50% L-WRN conditioned media (ATCC, cat. CRL-3276), 1.25 mM N-Acetyl-L-cysteine (Sigma-Aldrich, cat. A9165), 10 mM nicotinamide (Sigma-Aldrich, cat. N0636), 1X B-27 supplement (Thermo Fisher Scientific, cat. 17504044), 1X N-2 supplement (Thermo Fisher Scientific, cat. […]
# 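Also: spheroids exposed to agents for 7 days before viability reading.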
# 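For viability, T/C in this document: percent of DMSO vehicle control viability so 100% = vehicle and 0% = no viable signal.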
smiles,measurement,setting,value
CCc1cc2c(N3CCc4c(cc(Cn5ccnc5)cc4-c4cn(C)nc4C(F)(F)F)C3=O)cc(C)nc2c(OC)n1 + Cc1cccc(N(C)C(=O)C2C(O)CCN2c2nc(C)cc(C(F)(F)F)c2C#N)c1,pIC50,second compound 0.0316 µM,< 5.00
same,pIC50,second compound 0.1 µM,< 5.00
same,pIC50,second compound 0.316 µM,< 5.00
same,pIC50,second compound 1 µM,< 5.00
same,pIC50,second compound 3.16 µM,< 5.00
same,pIC50,second compound 10 µM,< 5.00
same,"viability, T/C","second compound 0.0316 µM, first compound 0.0316 µM",88%
same,"viability, T/C","second compound 0.0316 µM, first compound 0.1 µM",96.5%
same,"viability, T/C","second compound 0.0316 µM, first compound 0.316 µM",89.3%
same,"viability, T/C","second compound 0.0316 µM, first compound 1 µM",94.1%
same,"viability, T/C","second compound 0.0316 µM, first compound 3.16 µM",92.9%
same,"viability, T/C","second compound 0.0316 µM, first compound 10 µM",102%
same,"viability, T/C","second compound 0.1 µM, first compound 0.0316 µM",90.8%
same,"viability, T/C","second compound 0.1 µM, first compound 0.1 µM",93.2%
same,"viability, T/C","second compound 0.1 µM, first compound 0.316 µM",95.4%
same,"viability, T/C","second compound 0.1 µM, first compound 1 µM",97.1%
same,"viability, T/C","second compound 0.1 µM, first compound 3.16 µM",91.1%
same,"viability, T/C","second compound 0.1 µM, first compound 10 µM",98%
same,"viability, T/C","second compound 0.316 µM, first compound 0.0316 µM",94.3%
same,"viability, T/C","second compound 0.316 µM, first compound 0.1 µM",94.5%
same,"viability, T/C","second compound 0.316 µM, first compound 0.316 µM",96.9%
same,"viability, T/C","second compound 0.316 µM, first compound 1 µM",103%
same,"viability, T/C","second compound 0.316 µM, first compound 3.16 µM",93.8%
same,"viability, T/C","second compound 0.316 µM, first compound 10 µM",99.8%
same,"viability, T/C","second compound 1 µM, first compound 0.0316 µM",97.1%
same,"viability, T/C","second compound 1 µM, first compound 0.1 µM",89.5%
same,"viability, T/C","second compound 1 µM, first compound 0.316 µM",98.8%
same,"viability, T/C","second compound 1 µM, first compound 1 µM",94%
same,"viability, T/C","second compound 1 µM, first compound 3.16 µM",91.9%
same,"viability, T/C","second compound 1 µM, first compound 10 µM",88.7%
same,"viability, T/C","second compound 3.16 µM, first compound 0.0316 µM",104%
same,"viability, T/C","second compound 3.16 µM, first compound 0.1 µM",100%
same,"viability, T/C","second compound 3.16 µM, first compound 0.316 µM",92.2%
same,"viability, T/C","second compound 3.16 µM, first compound 1 µM",90.5%
same,"viability, T/C","second compound 3.16 µM, first compound 3.16 µM",101%
same,"viability, T/C","second compound 3.16 µM, first compound 10 µM",96.9%
same,"viability, T/C","second compound 10 µM, first compound 0.0316 µM",84.8%
same,"viability, T/C","second compound 10 µM, first compound 0.1 µM",93.5%
same,"viability, T/C","second compound 10 µM, first compound 0.316 µM",94.5%
same,"viability, T/C","second compound 10 µM, first compound 1 µM",96.1%
same,"viability, T/C","second compound 10 µM, first compound 3.16 µM",86%
same,"viability, T/C","second compound 10 µM, first compound 10 µM",89.8%

# From PubChem BioAssay AID1963835 (Molecular Pharmacology Branch, DTP, NCI, 2024)
